Ki and Kd data for 21 compounds are collected here from patent US20260125375A1 (Pfizer Inc., priority 2022, published 2026).

Usually Ki stands for a dissociation constant, usually derived from enzyme kinetics or from competition with a known ligand. The Kd is the equilibrium constant for the complex coming apart.

Experiment [1] deals with T1, C-CBL (residues 46-435) (Homo sapiens, UniProt P22681).
T1 construct: Purified CBL-B (residues 36-427) and C-CBL (residues 46-435) proteins from baculovirus-infected insect cells; made in house; host or cells: baculovirus-infected insect cells
T1 sequence (P22681 46-435): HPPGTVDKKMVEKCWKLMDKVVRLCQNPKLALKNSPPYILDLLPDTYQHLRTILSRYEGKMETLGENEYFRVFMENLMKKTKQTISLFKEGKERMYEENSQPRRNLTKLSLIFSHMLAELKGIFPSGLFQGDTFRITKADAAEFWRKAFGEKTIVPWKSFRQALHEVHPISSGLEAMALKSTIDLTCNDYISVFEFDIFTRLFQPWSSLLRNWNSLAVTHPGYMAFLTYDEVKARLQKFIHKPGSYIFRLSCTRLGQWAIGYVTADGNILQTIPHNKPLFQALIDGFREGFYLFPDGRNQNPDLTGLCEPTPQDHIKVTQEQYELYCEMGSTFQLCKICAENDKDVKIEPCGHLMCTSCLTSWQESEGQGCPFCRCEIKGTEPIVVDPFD
Put plainly: Ligand Displacement Assay (LDA), HTRF competitive binding against BODIPY-labeled fluorescent tracer, C-CBL. The note with it: geometric mean of the number of tests, read-out: C-CBL Ki (nM) GMean. The essentials: (§1)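 Ki values, given as geometric means of repeated tests, come from TR-FRET displacement of a BODIPY-labelled tracer from terbium-streptavidin-bound, AviTag-biotinylated protein made in baculovirus-infected insect cells. Compounds ran as three-fold dilutions in duplicate, […], 2% DMSO.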
For orientation: In TR-FRET formats the signal depends on donor and acceptor labels being close together.

The target of experiment [2] is T2, CBL-B (residues 36-427) (Homo sapiens, UniProt Q13191).
T2 construct: Purified CBL-B (residues 36-427) and C-CBL (residues 46-435) proteins from baculovirus-infected insect cells; made in house; host or cells: baculovirus-infected insect cells
Put plainly: Ligand Displacement Assay (LDA), HTRF competitive binding against BODIPY-labeled fluorescent tracer, CBL-B. The conditions noted are these: geometric mean of the number of tests, read-out: CBL-B Ki (nM) GMean. Summed up:
as §1

The target of experiment [3] is T3, WT CBL-B (36-427) (Homo sapiens, UniProt Q13191).
T3 construct: N-terminal biotinylated WT CBL-B (36-427) and C-CBL (46-435) were captured on a streptavidin (SA) coated sensor chip
Put plainly: Surface Plasmon Resonance (SPR) assay, binding affinity and kinetics, CBL-B. The note with it: SPR at 10° C., biotinylated WT CBL-B (36-427) on streptavidin chip; geometric mean; read-out: CBL-B SPR Kd (nM) GMean. The essentials: (§2)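 Biotinylated WT CBL-B (36-427) or C-CBL (46-435) captured on streptavidin chip (~5000–6000 RU); binding at 10° C in HEPES buffer pH 7.2 with 2% DMSO. Multi-cycle: 2-fold, 10-point series from 10 or 100 μM, 90 s association. Single-cycle: 3-fold, 6-point, 0.001–1 μM, 120 s association, >5400 s dissociation.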

In experiment [4] the target is T4, C-CBL (46-435) (Homo sapiens, UniProt P22681).
T4 construct: N-terminal biotinylated WT CBL-B (36-427) and C-CBL (46-435) were captured on a streptavidin (SA) coated sensor chip
T4 sequence (P22681 46-435): T1 sequence (P22681 46-435)
Put plainly: Surface Plasmon Resonance (SPR) assay, binding affinity and kinetics, C-CBL. The conditions noted are these: SPR at 10° C., biotinylated C-CBL (46-435) on streptavidin chip; geometric mean; read-out: C-CBL SPR Kd (nM) GMean. The essentials:
as §2

Take `CC(O)c1nc(C(F)(F)F)cc2c(-c3cccc(C4(Cc5nncn5C)COC4)c3)n[nH]c12` (single isomer, unassigned) [Example K11, (1ξ)-1-[3-(3-{3-[(4-methyl-4H-1,2,4-triazol-3-yl)methyl]oxetan-3-yl}phenyl)-5-(trifluoromethyl)-1H-pyrazolo[3,4-c]pyridin-7-yl]ethan-1-ol]: the Ki in experiment [1] was 119 nM; in experiment [2] it was 31.2 nM. In addition, the Kd is 11.7 nM in experiment [3] and 199 nM in experiment [4].

For the compound `C[C@@H]1CN(Cc2nc(C(F)(F)F)cc3c(-c4cccc(C5(Cc6nncn6C)COC5)c4)n[nH]c23)CCO1` [Example C72, 7-{[(2R)-2-methylmorpholin-4-yl]methyl}-3-(3-{3-[(4-methyl-4H-1,2,4-triazol-3-yl)methyl]oxetan-3-yl}phenyl)-5-(trifluoromethyl)-1H-pyrazolo[3,4-c]pyridine], the results for the Ki in experiment [1] and in experiment [2] were 83.3 nM and 18.6 nM, respectively. For the same compound, the results for the Kd in experiment [3] and in experiment [4] were 2.3 nM and 63.1 nM, respectively.

Consider `C[C@H](c1nc(C(F)(F)F)cc2c(-c3cccc(C4(Cc5nncn5C)COC4)c3)n[nH]c12)N1CCNC(=O)C1` (single isomer, unassigned) [Example D52], for which the Ki was determined as 118 nM in experiment [1] and 31.9 nM in experiment [2]. Moreover, the Kd in experiment [3] was 10.1 nM; in experiment [4] it was 79.1 nM.

Consider `COc1nc(C(F)(F)F)cc2c(-c3cccc(C4(Cc5nncn5C)COC4)c3)n[nH]c12` [Example J10, 7-methoxy-3-(3-{3-[(4-methyl-4H-1,2,4-triazol-3-yl)methyl]oxetan-3-yl}phenyl)-5-(trifluoromethyl)-1H-pyrazolo[3,4-c]pyridine], for which the inhibitory constant (Ki) in experiment [1] turned out to be 91.9 nM; in experiment [2], 25.1 nM. Further, the values for the Kd in experiment [3] and in experiment [4] were 21.4 nM and 178 nM, respectively.

With `Cn1cnnc1[C@@H](c1cccc(-c2n[nH]c3c(CN[C@H]4C[C@H](O)C4)nc(C(F)(F)F)cc23)c1)C1CCC1` [Example C119, (1r,3r)-3-({[3-{3-[(R)-cyclobutyl(4-methyl-4H-1,2,4-triazol-3-yl)methyl]phenyl}-5-(trifluoromethyl)-1H-pyrazolo[3,4-c]pyridin-7-yl]methyl}amino)cyclobutan-1-ol], the Ki in experiment [1] is 220 nM; in experiment [2], 28.7 nM. Besides, the Kd in experiment [3] is 21.9 nM; in experiment [4], 254 nM.

For the compound `Cn1cnnc1CC1(c2cccc(-c3n[nH]c4c(CNC5CC(F)(F)C5)nc(C(F)(F)F)cc34)c2)COC1` [Example C78, 3,3-difluoro-N-{[3-(3-{3-[(4-methyl-4H-1,2,4-triazol-3-yl)methyl]oxetan-3-yl}phenyl)-5-(trifluoromethyl)-1H-pyrazolo[3,4-c]pyridin-7-yl]methyl}cyclobutan-1-amine], the results for the Ki in experiment [1] and in experiment [2] were 253 nM and 56.6 nM, respectively. Moreover, the Kd in experiment [3] amounted to 10 nM; in experiment [4], 144 nM.

As to `Cn1cnnc1[C@@H](c1cccc(-c2n[nH]c3c(CN[C@@H]4CC[C@H](O)C4)nc(C(F)(F)F)cc23)c1)C1CCC1` [Example D34], the Ki came out at 59.9 nM in experiment [1] and 6.5 nM in experiment [2]. Further, the Kd in experiment [3] is 1.8 nM; in experiment [4] it was 101 nM.

For the compound `Cn1cnnc1[C@@H](c1cccc(-c2n[nH]c3c(CN4CC[C@@H](F)C4)nc(C(F)(F)F)cc23)c1)C1CCC1` [Example C109, 3-{3-[(R)-cyclobutyl(4-methyl-4H-1,2,4-triazol-3-yl)methyl]phenyl}-7-{[(3R)-3-fluoropyrrolidin-1-yl]methyl}-5-(trifluoromethyl)-1H-pyrazolo[3,4-c]pyridine], the Ki is 442 nM in experiment [1] and 48.8 nM in experiment [2]. Further, the Kd was found to be 8.8 nM in experiment [3] and 174 nM in experiment [4].

Turning to `C[C@@H]1CN([C@H](C)c2nc(C(F)(F)F)cc3c(-c4cccc(C5(Cc6nncn6C)COC5)c4)n[nH]c23)CCO1` (single isomer, unassigned) [Example D50], the values for the Ki in experiment [1] and in experiment [2] were 30.7 nM and 9 nM, respectively. The Kd in experiment [3] came to 2.6 nM; in experiment [4] it was 30.1 nM.

For the compound `CC(N[C@@H]1CCOC1)c1nc(C(F)(F)F)cc2c(-c3cccc(C4(Cc5nncn5C)COC4)c3)n[nH]c12` (single isomer, unassigned) [Example C85], the Ki is 92.5 nM in experiment [1] and 15.2 nM in experiment [2]. Moreover, the dissociation constant (Kd) in experiment [3] came out at 2.1 nM; in experiment [4], 82.5 nM.

In the case of `CC(NC1CC2(COC2)C1)c1nc(C(F)(F)F)cc2c(-c3cccc([C@H](c4nncn4C)C4CCC4)c3)n[nH]c12` (single isomer, unassigned) [Example C97], the Ki in experiment [1] was 141 nM; in experiment [2] it was 31.8 nM. Moreover, the Kd in experiment [3] was 9.6 nM; in experiment [4], 242 nM.

As to `Cn1cnnc1CC1(c2cccc(-c3n[nH]c4cnc(OC(F)(F)F)cc34)c2)COC1` [Example B9, 3-(3-{3-[(4-methyl-4H-1,2,4-triazol-3-yl)methyl]oxetan-3-yl}phenyl)-5-(trifluoromethoxy)-1H-pyrazolo[3,4-c]pyridine], the inhibition constant Ki in experiment [1] was determined as 238 nM; in experiment [2], 74.5 nM. Further, the Kd in experiment [3] worked out at 32.5 nM; in experiment [4] it was 244 nM.

`CCNC(C)c1nc(C(F)(F)F)cc2c(-c3cccc([C@H](c4nncn4C)C4CCC4)c3)n[nH]c12` (single isomer, unassigned) [Example C90]: the Ki in experiment [1] is 93.3 nM; in experiment [2] it was 9.4 nM. In addition, the Kd in experiment [3] is 5.1 nM; in experiment [4], 169 nM.

In the case of `C[C@H](c1nc(C(F)(F)F)cc2c(-c3cccc([C@H](c4nncn4C)C4CCC4)c3)n[nH]c12)N1CCNC(=O)C1` (single isomer, unassigned) [Example D89], the figures for the Ki in experiment [1] and in experiment [2] were 290 nM and 20.9 nM, respectively. Further, the Kd was found to be 11 nM in experiment [3] and 307 nM in experiment [4].

As to `CN[C@@H](C)c1nc(C(F)(F)F)cc2c(-c3cccc(C4(Cc5nncn5C)COC4)c3)n[nH]c12` (single isomer, unassigned) [Example D37], the Ki stood at 64.5 nM in experiment [1] and 22.2 nM in experiment [2]. Also, the Kd in experiment [3] came out at 7.9 nM; in experiment [4], 68.6 nM.

In the case of `C[C@@H](c1nc(C(F)(F)F)cc2c(-c3cccc(C4(Cc5nncn5C)COC4)c3)n[nH]c12)N1CCNC(=O)C1` (single isomer, unassigned) [Example D51], the figures for the Ki in experiment [1] and in experiment [2] were 19.6 nM and 5.7 nM, respectively. Further, the results for the Kd in experiment [3] and in experiment [4] were 2.7 nM and 15 nM, respectively.

`Cn1cnnc1CC1(c2cccc(-c3n[nH]c4c(CCN)nc(C(F)(F)F)cc34)c2)COC1` [Example K5, 2-[3-(3-{3-[(4-methyl-4H-1,2,4-triazol-3-yl)methyl]oxetan-3-yl}phenyl)-5-(trifluoromethyl)-1H-pyrazolo[3,4-c]pyridin-7-yl]ethan-1-amine]: the Ki was 199 nM in experiment [1] and 55.3 nM in experiment [2]. The Kd in experiment [3] was 23.6 nM; in experiment [4] it was 221 nM.

Consider `Cc1nccc2c(-c3cccc([C@H](c4nncn4C)C4CCC4)c3)n[nH]c12` [Example A7, 3-{3-[(R)-cyclobutyl(4-methyl-4H-1,2,4-triazol-3-yl)methyl]phenyl}-7-methyl-1H-pyrazolo[3,4-c]pyridine], for which the Ki in experiment [1] was found to be 767 nM; in experiment [2], 83.8 nM. The Kd came to 31 nM in experiment [3] and 1300 nM in experiment [4].

Consider `C[C@H](c1nc(C(F)(F)F)cc2c(-c3cccc(C4(Cc5nncn5C)COC4)c3)n[nH]c12)N1CC(F)C1` (single isomer, unassigned) [Example D44], for which the Ki was determined as 47.4 nM in experiment [1] and 15.6 nM in experiment [2]. Further, the Kd amounted to 5.9 nM in experiment [3] and 74 nM in experiment [4].

For the compound `Cn1cnnc1[C@@H](c1cccc(-c2n[nH]c3c(CN[C@@H]4CC[C@@H](O)C4)nc(C(F)(F)F)cc23)c1)C1CCC1` [Example D35], the figures for the Ki in experiment [1] and in experiment [2] were 100 nM and 12.9 nM, respectively. Moreover, the results for the Kd in experiment [3] and in experiment [4] were 4.4 nM and 152 nM, respectively.

In the case of `Cn1cnnc1[C@@H](c1cccc(-c2n[nH]c3c(CN4C[C@H](O)[C@@H](O)C4)nc(C(F)(F)F)cc23)c1)C1CCC1` [Example C76, (3S,4S)-1-{[3-{3-[(R)-cyclobutyl(4-methyl-4H-1,2,4-triazol-3-yl)methyl]phenyl}-5-(trifluoromethyl)-1H-pyrazolo[3,4-c]pyridin-7-yl]methyl}pyrrolidine-3,4-diol], the figures for the Ki in experiment [1] and in experiment [2] were 41.4 nM and 3.3 nM, respectively. The results for the Kd in experiment [3] and in experiment [4] were 2.5 nM and 52.1 nM, respectively.
